PMC6534212, “Synthesis and biological evaluation of 3–(4-aminophenyl)-coumarin derivatives as potential anti-Alzheimer’s disease agents” (Journal of Enzyme Inhibition and Medicinal Chemistry, 2019)
Entries after “also recorded” stand apart in the source; their conditions may differ.

Key:
zebrafish juveniles = assay: Model of exercise retardation, death and teratogenicity in zebrafish juveniles made of aluminium trichloride; settings: for Movement distance: 72 hpe, n=6; for Movement distance / Malformation rate / Mortality rate: mean ± SE; for Malformation rate / Mortality rate: after 72 h, n=90
Description: The 72 hpf zebrafish were placed in a petri dish, and the normal developing juveniles were selected under a microscope in a 12-well plate. The concentration of AlCl3 in the experiment was set to 0, 0.1, 0.5, 1.0, 5.0, 10.0, and 50.0 mg/L (prepared for aquaculture water), three replicate wells were set in each concentration group and then placed in a constant temperature incubator at 28 °C to continue the culture. The continuous drug solution was exposed for 3 days. The different concentrations of AlCl3 and the blank control group were placed in 48-well plates. Each well was juvenile fish developed to 72 h post-exposure (hpe) and added 0.5 mL of culture water and 8 juveniles were set in each experimental group. The well plate was placed in the dark box of the zebrafish behaviour analysis system. The fish was first adapted to 10 min at the beginning of the experiment. The trajectories of the juveniles in each group were collected using zeblab software for 10 min, recorded every 5 min, and exported by software. Then calculate the total distance of each group of zebrafish juveniles. The effects of different concentrations of aluminium trichloride on the death and teratogenicity of zebrafish juveniles were observed by microscopy.

[1] = target: T1, AChE from Electrophorus electricus (Electrophorus electricus, UniProt O42275); assay: biochemical; type: biochemical; settings: for IC50: AChE from Electrophorus electricus, mean ± SD (n=3); for AChE inhibitory activity (in words): verbal summary of Table 2; for Selectivity AChE/BuChE (in words): verbal summary of SI
T1 construct: purchased Macklin
T1 sequence (O42275 24-633): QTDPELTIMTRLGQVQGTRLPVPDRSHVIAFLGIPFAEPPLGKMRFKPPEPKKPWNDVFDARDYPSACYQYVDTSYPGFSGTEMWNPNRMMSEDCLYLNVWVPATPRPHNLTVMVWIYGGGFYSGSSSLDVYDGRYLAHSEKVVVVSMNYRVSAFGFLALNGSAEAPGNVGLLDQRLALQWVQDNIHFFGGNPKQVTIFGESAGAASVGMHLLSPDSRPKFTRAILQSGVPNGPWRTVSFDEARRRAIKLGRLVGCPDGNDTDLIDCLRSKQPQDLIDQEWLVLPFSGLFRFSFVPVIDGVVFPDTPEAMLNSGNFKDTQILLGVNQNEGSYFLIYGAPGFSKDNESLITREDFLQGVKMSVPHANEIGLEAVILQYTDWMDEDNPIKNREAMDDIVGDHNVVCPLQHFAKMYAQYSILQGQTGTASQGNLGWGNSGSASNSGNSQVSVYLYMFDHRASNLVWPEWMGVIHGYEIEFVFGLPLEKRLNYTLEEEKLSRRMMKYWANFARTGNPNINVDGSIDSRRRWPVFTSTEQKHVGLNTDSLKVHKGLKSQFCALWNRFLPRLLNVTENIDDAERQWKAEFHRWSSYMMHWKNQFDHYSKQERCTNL
Description: (§1) In the experiment, 0.05 mol/L phosphate buffered saline (PBS) of pH 8.0 was prepared first, and then the following solutions were prepared: 1.5 mmol/L Acetylthiocholine iodide (ATChI); 0.75 mmol/L 5, 5'-Dithiobis-(2-nitrobenzoic acid) (DTNB, Sigma Aldrich, St. Louis, MO); 0.2 U/mL Acetylcholinesterase (AChE, from […], Macklin); 0.5 U/mL Butyrylcholinesterase (BuChE, from equine serum, Aladdin, Shanghai, China); 1.5 mmol/L S-Butyrylthiocholine iodide (BTChI, Sigma Aldrich, St. Louis, MO). 4% sodium dodecyl sulphate (SDS) was prepared with secondary water. […] All solutions were stored in a refrigerator at 4 °C.
(§2) The AChE/BuChE inhibitory activity of the 3–(4-aminophenyl)-coumarin derivatives was determined by the method of Ellaman[28] with slight modifications. The experiment was divided into control group, sample blank group and sample group. Take a series of test tubes, the reagents were loaded in test tubes at the dose of Table 6. After incubation at 37 °C for 20 min, quickly add 1 mL of 4% SDS to stop the reaction. […] All experiments were run in triplicate. The absorbance was determined by UV spectrophotometer, and the inhibition rate of AChE and the IC50 value of each sample were calculated according to the formula. Inhibition rate % = {[(AC−AS)−ASB]/AC} ×100%, where AC (no sample added) is the absorbance of control group; AS is the absorbance of sample group; ASB (add sample solution but no substrate ATChI added) is the absorbance of sample blank group.

BuChE from equine serum = target: T2, BuChE from equine serum (Equus caballus, UniProt P81908); assay: biochemical; type: biochemical; settings: BuChE from equine serum; mean ± SD (n=3)
T2 construct: Butyrylcholinesterase (BuChE, from equine serum, Aladdin, Shanghai, China); purchased Aladdin, Shanghai, China; host or cells: equine serum
T2 sequence (P81908 whole entry): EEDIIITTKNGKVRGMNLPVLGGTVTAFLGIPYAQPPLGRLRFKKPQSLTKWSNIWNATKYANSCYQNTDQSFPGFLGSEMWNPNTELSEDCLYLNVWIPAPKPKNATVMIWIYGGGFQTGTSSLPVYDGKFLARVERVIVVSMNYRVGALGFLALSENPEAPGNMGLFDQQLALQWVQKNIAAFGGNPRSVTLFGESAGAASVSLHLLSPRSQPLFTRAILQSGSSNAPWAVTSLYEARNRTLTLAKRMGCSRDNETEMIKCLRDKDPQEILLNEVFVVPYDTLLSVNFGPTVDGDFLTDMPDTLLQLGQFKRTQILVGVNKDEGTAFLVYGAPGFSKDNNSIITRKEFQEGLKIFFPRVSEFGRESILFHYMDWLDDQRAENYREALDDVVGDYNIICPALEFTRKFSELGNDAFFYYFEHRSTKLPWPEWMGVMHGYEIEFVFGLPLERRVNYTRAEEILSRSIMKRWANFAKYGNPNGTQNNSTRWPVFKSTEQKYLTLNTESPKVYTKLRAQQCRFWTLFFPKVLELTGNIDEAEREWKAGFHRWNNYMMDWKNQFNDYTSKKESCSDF
Description: as §1, §2
The method for determining BuChE is the same as the method for measuring AChE. The sample can be added with reference to Table 6, AChE is changed to BuChE, and the substrate ATChI is changed to substrate BTChI. The order of loading and the amount of loading are the same as Table 6. The absorbance was determined by UV spectrophotometer, and the inhibition rate of BuChE and the IC50 value of each sample were calculated according to the formula. The formula used is the same as AChE.

[2] = tested on: aluminium trichloride-induced zebrafish juveniles; assay: Effects of compounds on aluminium trichloride-induced behavioural inhibition of zebrafish juveniles (Zebrobox); settings: for Total movement distance: mean ± SE, n=8; for Effect on behavioural inhibition of zebrafish induced by aluminium trichloride (in words): compared with the model group
Description: The most suitable modelling concentrations were chosen, and then the effect of the compounds on the behaviour of the aluminium trichloride-induced zebrafish juveniles was explored.
The 72 hpf zebrafish were placed in a petri dish, and the normal developing juveniles were selected under a microscope in a 12-well plate. […] The continuous drug solution was exposed for 3 days. […] Each well was juvenile fish developed to 72 h post-exposure (hpe) and added 0.5 mL of culture water and 8 juveniles were set in each experimental group. The well plate was placed in the dark box of the zebrafish behaviour analysis system. The fish was first adapted to 10 min at the beginning of the experiment. The trajectories of the juveniles in each group were collected using zeblab software for 10 min, recorded every 5 min, and exported by software. Then calculate the total distance of each group of zebrafish juveniles.
The zebrafish with 72 hpf after fertilisation is placed in a petri dish. Under normal conditions, the normal developing juvenile fish are selected in a 12-well plate, and 15 juveniles per hole are set. Control group (0.5% DMSO), model group (5.0 mg/L AlCl3), 5.0 mg/L AlCl3 + test compound 5 μg/mL group, 5.0 mg/L AlCl3 + test compound 10 μg/mL group, 5.0 mg/L AlCl3 + test compound 50 μg/mL group, 5.0 mg/L AlCl3 + test compound 100 μg/mL group, three duplicate wells were set at each concentration. After the administration, the zebrafish was placed in a constant temperature incubator at 28 °C to continue the culture for 3 days. Changing the liquid (aquaculture water) every 24 h and removing dead young fish.

[3] = 5 mg/L compound + 5.0 mg/L AlCl3, 3 days
[4] = 10 mg/L compound + 5.0 mg/L AlCl3, 3 days
[5] = 50 mg/L compound + 5.0 mg/L AlCl3, 3 days
[6] = 100 mg/L compound + 5.0 mg/L AlCl3, 3 days

Row | SMILES | IC50 [1] | SI: selectivity index (IC50 BuChE/IC50 AChE) [1] | AChE inhibitory activity (in words) [1] | IC50 (BuChE from equine serum) | Total movement distance [2, 3] | Total movement distance [2, 4] | Total movement distance [2, 5] | Total movement distance [2, 6] | also measured
1 | [Cl][Al]([Cl])[Cl] [AlCl3, aluminium trichloride] | – | – | – | – | – | – | – | – | Movement distance (zebrafish juveniles; AlCl3 0.1 mg/L): 292.4 ± 6.7 cm; Malformation rate (zebrafish juveniles; AlCl3 0.1 mg/L): 0.00 ± 0.00%; Mortality rate (zebrafish juveniles; AlCl3 0.1 mg/L): 0.00 ± 0.00%; Movement distance (zebrafish juveniles; AlCl3 0.5 mg/L): 236.8 ± 9.4 cm; Malformation rate (zebrafish juveniles; AlCl3 0.5 mg/L): 0.00 ± 0.00%; Mortality rate (zebrafish juveniles; AlCl3 0.5 mg/L): 0.00 ± 0.00%; Movement distance (zebrafish juveniles; AlCl3 1.0 mg/L): 224.3 ± 10.8 cm; Malformation rate (zebrafish juveniles; AlCl3 1.0 mg/L): 1.11 ± 0.17%; Mortality rate (zebrafish juveniles; AlCl3 1.0 mg/L): 0.00 ± 0.00%; Movement distance (zebrafish juveniles; AlCl3 5.0 mg/L): 181.3 ± 9.6 cm; Malformation rate (zebrafish juveniles; AlCl3 5.0 mg/L): 2.22 ± 0.17%; Mortality rate (zebrafish juveniles; AlCl3 5.0 mg/L): 1.11 ± 0.17%; Movement distance (zebrafish juveniles; AlCl3 10.0 mg/L): 204.6 ± 12.8 cm; Malformation rate (zebrafish juveniles; AlCl3 10.0 mg/L): 16.67 ± 0.29 %; Mortality rate (zebrafish juveniles; AlCl3 10.0 mg/L): 11.11 ± 0.17 %; Death or malformation of zebrafish (in words) (zebrafish juveniles; AlCl3 50.0 mg/L, after 24 h administration): Most of the fish in the 50.0 mg/L group were dead or malformed; Malformation rate (zebrafish juveniles; AlCl3 50.0 mg/L): 100.00 ± 0.00 %; Mortality rate (zebrafish juveniles; AlCl3 50.0 mg/L): 100.00 ± 0.00 %; Death of zebrafish (in words) (zebrafish juveniles; AlCl3 50.0 mg/L, at 48 h): all fish died
2 | COc1cccc2cc(-c3ccc(NC(=O)c4ccc(C(F)(F)F)cc4)cc3)c(=O)oc12 [Compound 4l, 3-[4-(4-trifluoromethyl-benzoylamino)-phenyl]-8-methoxy-coumarin] | 5.6 ± 0.132 µM | 0.772 | moderate to excellent AChE inhibitory activity | 4.32 ± 0.685 µM | 179.9 ± 10.1 cm | 194.6 ± 13.6 cm | 211.5 ± 20.2 cm | 184.8 ± 11.5 cm | –
3 | COc1cccc2cc(-c3ccc(NC(=O)c4ccc(CCl)cc4)cc3)c(=O)oc12 [Compound 4m, 3-[4-(4-chloromethyl-benzoylamino)-phenyl]-8-methoxy-coumarin] | 0.091 ± 0.011 µM | 452.637 | moderate to excellent AChE inhibitory activity | 41.2 ± 1.04 µM | 198.3 ± 10.1 cm | 210.2 ± 6.0 cm | 230.8 ± 6.2 cm | 247.1 ± 12.3 cm | Selectivity AChE/BuChE (in words) [1]: highly selective for AChE; Effect on total distance of zebrafish juvenile movement (in words) ([2]; at 50.0 and 100.0 μg/mL concentration): significant therapeutic effect; also recorded: significant effects compared with the model group; Effect on behavioural inhibition of zebrafish induced by aluminium trichloride (in words) [2]: certain therapeutic effects; also recorded: could alleviate the behavioural inhibition symptoms
4 | COc1cccc2cc(-c3ccc(NC(=O)c4cccc(Cl)c4Cl)cc3)c(=O)oc12 [Compound 4r, 3-[4-(2,3-dichloro-benzoylamino)-phenyl]-8-methoxy-coumarin] | 19.7 ± 2.45 µM | 0.220 | – | 4.33 ± 0.125 µM | 178 ± 11.2 cm | 182.4 ± 4.6 cm | 196.4 ± 11.7 cm | 194.4 ± 9.4 cm | –
5 | O=C(Nc1ccc(-c2cc3ccc(O)cc3oc2=O)cc1)c1ccco1 [Compound 5a, 3-[4-(furan-2-formylamino)-phenyl]-7-hydroxy-coumarin] | 2.49 ± 0.151 µM | 3.842 | moderate to excellent AChE inhibitory activity | 9.55 ± 0.455 µM | 194.2 ± 6.5 cm | 188.8 ± 14.7 cm | 215.5 ± 17.1 cm | 187.2 ± 6.2 cm | –
6 | COc1cccc2cc(-c3ccc(NC(=O)c4ccc5ccccc5c4)cc3)c(=O)oc12 [Compound 7b, 3-[4-(2-naphthoylamino)-phenyl]-8-methoxy-coumarin] | 0.128 ± 0.011 µM | 341.87 | moderate to excellent AChE inhibitory activity | 43.8 ± 1.97 µM | – | 278.4 ± 11.4 cm | 227.4 ± 8.1 cm | 272.1 ± 10.4 cm | Selectivity AChE/BuChE (in words) [1]: highly selective for AChE
7 | COc1cccc2cc(-c3ccc(NC(=O)c4cccs4)cc3)c(=O)oc12 [Compound 7d, 3-[4-(thiophene-2-formylamino)-phenyl]-8-methoxy-coumarin] | 6.63 ± 0.12 µM | 0.700 | moderate to excellent AChE inhibitory activity | 4.65 ± 0.245 µM | 202.9 ± 6.2 cm | 208.4 ± 9.7 cm | 224.2 ± 9.2 cm | 235.4 ± 11.4 cm | Effect on behavioural inhibition of zebrafish induced by aluminium trichloride (in words) [2]: certain therapeutic effects; also recorded: could alleviate the behavioural inhibition symptoms
